According to ChEMBL document CHEMBL5344473, “Inhibition of N-type calcium channels by phenoxyaniline and sulfonamide analogues” (RSC Med Chem, 2024):

Assays:
[1] = target: Voltage-dependent N-type calcium channel subunit alpha-1B (Homo sapiens, UniProt Q00975); test: Inhibition of Cav2.2 in human SH-SY5Y cells assessed as inhibition of calcium influx measured for 300 secs in presence of Cav1 blocker, nifedipine by FLIPR assay; format: cell-based
in vitro = details: Sprague-Dawley, rat, plasma
[2] = Cytotoxicity against African green monkey COS7 cells assessed as reduction in cell viability measured after 20 hrs by CellTiter-Blue reagent based fluorescence analysis; details: chlorocebus aethiops
[3] = target: Voltage-dependent T-type calcium channel subunit alpha-1H (Homo sapiens, UniProt O95180); test: Inhibition of human recombinant Cav3.2 alpha1 subunit expressed in HEK293T cells assessed as inhibition of calcium influx measured for 300 secs by FLIPR assay; format: cell-based
Voltage-dependent T-type calcium channel subunit alpha-1H, sequence (O95180 whole entry): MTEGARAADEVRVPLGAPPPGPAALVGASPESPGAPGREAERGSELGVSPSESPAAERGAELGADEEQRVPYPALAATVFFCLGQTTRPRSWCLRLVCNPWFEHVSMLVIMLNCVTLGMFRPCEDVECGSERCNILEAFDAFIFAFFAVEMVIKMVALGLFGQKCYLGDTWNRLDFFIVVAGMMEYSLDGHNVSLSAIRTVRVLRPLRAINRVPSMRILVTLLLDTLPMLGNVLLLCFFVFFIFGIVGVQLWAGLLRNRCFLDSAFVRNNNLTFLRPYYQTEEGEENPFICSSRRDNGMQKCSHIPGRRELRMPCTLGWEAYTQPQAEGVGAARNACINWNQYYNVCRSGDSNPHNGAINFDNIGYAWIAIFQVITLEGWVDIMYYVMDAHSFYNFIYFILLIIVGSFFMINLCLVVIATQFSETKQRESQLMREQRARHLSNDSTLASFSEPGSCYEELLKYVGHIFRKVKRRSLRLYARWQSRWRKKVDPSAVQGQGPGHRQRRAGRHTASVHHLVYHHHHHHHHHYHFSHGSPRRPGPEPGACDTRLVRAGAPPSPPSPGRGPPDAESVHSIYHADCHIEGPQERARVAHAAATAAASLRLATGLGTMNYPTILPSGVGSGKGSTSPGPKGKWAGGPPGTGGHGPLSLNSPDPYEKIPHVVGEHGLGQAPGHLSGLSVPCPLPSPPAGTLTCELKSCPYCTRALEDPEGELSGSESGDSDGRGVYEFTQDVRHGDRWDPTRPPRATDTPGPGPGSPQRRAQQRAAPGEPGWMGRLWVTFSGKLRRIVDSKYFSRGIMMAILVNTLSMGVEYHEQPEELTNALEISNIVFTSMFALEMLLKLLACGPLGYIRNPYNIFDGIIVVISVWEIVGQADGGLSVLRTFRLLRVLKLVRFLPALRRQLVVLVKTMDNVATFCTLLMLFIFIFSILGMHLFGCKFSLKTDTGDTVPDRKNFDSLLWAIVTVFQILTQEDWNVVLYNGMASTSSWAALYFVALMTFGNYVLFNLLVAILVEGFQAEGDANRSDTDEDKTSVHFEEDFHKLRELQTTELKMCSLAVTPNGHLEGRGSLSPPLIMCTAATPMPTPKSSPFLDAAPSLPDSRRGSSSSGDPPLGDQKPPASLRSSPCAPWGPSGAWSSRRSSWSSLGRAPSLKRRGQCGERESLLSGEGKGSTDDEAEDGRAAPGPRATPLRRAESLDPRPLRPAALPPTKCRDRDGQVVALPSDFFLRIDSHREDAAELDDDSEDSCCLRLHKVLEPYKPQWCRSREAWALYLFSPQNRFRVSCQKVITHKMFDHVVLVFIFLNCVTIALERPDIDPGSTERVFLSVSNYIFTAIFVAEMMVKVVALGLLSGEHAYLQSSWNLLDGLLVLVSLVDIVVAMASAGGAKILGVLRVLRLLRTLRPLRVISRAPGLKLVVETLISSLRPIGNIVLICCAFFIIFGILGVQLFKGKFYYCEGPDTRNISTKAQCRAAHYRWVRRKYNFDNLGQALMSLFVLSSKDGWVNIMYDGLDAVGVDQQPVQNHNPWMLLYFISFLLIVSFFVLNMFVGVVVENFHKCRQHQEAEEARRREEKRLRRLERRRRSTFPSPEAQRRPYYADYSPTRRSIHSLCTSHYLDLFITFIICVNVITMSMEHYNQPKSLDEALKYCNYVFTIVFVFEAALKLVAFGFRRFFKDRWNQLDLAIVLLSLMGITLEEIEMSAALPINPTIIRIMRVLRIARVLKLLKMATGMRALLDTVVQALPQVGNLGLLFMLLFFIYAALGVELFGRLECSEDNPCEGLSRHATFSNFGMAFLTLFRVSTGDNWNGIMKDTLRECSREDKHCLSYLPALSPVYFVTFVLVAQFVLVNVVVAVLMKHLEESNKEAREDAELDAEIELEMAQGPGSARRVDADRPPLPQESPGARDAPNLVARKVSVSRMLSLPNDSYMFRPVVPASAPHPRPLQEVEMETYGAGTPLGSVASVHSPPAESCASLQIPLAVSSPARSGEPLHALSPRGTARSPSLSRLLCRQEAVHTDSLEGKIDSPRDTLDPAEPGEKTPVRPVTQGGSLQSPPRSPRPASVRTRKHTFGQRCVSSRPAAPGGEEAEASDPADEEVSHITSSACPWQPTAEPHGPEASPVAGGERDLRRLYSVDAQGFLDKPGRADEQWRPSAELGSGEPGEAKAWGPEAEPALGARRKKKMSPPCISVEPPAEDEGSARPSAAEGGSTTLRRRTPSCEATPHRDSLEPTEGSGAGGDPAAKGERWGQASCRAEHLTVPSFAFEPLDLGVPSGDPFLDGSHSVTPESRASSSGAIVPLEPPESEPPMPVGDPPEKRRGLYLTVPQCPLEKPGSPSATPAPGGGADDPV

Voltage-dependent N-type calcium channel subunit alpha-1B, sequence (Q00975 whole entry): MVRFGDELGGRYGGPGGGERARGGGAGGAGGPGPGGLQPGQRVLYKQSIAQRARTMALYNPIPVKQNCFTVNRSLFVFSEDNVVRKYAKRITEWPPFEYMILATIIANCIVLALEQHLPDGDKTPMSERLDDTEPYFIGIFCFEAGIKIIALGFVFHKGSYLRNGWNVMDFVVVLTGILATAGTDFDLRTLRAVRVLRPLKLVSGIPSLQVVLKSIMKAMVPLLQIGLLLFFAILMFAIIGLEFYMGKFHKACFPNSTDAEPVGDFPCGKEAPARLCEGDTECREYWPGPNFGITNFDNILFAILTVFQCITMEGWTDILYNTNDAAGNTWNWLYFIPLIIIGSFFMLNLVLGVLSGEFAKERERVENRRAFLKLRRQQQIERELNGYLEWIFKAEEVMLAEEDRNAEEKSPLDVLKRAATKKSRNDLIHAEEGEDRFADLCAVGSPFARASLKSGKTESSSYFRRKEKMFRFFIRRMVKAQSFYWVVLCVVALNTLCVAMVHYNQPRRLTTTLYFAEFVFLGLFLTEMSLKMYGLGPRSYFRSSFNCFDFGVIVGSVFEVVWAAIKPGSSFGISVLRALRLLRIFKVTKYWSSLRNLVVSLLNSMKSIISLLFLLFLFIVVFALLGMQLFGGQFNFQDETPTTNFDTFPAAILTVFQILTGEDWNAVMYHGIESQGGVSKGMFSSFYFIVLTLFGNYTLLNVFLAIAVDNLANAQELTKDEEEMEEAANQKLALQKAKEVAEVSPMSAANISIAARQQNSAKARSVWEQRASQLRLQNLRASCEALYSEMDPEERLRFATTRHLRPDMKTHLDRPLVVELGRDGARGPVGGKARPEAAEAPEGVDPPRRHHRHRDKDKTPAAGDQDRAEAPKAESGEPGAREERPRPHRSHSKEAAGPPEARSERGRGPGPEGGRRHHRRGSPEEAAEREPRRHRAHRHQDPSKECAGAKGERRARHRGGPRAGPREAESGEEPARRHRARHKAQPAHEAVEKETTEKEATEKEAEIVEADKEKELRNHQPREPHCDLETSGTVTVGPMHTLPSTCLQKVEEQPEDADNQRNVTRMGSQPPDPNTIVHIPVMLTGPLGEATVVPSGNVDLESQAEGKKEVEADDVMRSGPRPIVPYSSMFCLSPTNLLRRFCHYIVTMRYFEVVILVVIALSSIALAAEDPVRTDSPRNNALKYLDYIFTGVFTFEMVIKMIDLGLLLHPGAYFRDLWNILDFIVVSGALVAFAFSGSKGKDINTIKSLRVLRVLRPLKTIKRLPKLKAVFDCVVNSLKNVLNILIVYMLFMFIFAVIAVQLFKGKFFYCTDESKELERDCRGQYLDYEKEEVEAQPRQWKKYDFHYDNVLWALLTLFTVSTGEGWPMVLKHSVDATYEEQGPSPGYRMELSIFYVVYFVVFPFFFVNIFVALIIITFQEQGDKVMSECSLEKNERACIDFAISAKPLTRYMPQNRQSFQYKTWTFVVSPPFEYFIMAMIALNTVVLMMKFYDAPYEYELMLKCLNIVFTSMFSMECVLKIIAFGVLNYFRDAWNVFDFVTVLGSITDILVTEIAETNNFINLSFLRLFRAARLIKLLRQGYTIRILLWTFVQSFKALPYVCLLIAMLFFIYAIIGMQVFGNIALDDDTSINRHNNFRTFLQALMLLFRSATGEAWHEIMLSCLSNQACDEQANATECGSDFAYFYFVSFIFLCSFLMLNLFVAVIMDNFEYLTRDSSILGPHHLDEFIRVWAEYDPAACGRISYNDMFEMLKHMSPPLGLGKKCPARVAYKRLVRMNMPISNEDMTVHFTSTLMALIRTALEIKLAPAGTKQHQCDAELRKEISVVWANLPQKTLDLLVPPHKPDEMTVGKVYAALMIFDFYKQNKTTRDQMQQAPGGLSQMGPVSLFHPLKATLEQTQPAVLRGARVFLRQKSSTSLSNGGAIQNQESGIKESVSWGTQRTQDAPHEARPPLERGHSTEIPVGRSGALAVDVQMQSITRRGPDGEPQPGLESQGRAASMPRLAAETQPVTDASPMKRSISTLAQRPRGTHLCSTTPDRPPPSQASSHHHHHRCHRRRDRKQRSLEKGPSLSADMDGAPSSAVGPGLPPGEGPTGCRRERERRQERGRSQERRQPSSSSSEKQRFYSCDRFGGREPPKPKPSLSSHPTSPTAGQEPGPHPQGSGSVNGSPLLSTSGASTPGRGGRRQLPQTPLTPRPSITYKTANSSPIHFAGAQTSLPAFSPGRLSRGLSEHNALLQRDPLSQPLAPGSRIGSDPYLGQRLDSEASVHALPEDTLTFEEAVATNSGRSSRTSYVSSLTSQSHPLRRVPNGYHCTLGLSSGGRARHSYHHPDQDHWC

Structure (SMILES) | IC50 [1] [µM] | half-life at 150 µM (in vitro) [h] | IC50 [3] [µM] | CC50 at 20 h [2] [µM]
CN(C)CCCOc1ccc(C(=O)Nc2ccccc2Oc2ccc(F)cc2)cc1 |  | ~1.5 |  | 
CN(C)CCCOc1ccc(C(=O)Nc2ccccc2Oc2ccccc2)cc1 |  |  |  | > 100
FC(F)(F)c1ccc(Oc2ccccc2NCc2ccc(OCCCN3CCCC3)cc2)cc1 | 51 |  | 110 | 
FC(F)(F)c1ccc(Oc2ccc(NCc3ccc(OCCCN4CCCC4)cc3)cc2)cc1 | 50 | > 60 | 182 | 
c1ccc(Oc2cccc(NCc3ccc(OCCCN4CCCCC4)cc3)c2)cc1 | 63 | > 60 | 200 | 
c1ccc(Oc2cccc(NCc3ccc(OCCCn4ccnc4)cc3)c2)cc1 | 68 | > 60 | 258 | 
CNCCCOc1ccc(CNc2ccccc2Oc2ccc(C(F)(F)F)cc2)cc1 | 58 | > 60 | 204 | 
N#Cc1ccc(Oc2ccc(NCc3ccc(OCCCn4ccnc4)cc3)cc2)cc1 | 75 | > 60 | 371 | 
Fc1ccc(Oc2ccc(NCc3ccc(OCCCn4ccnc4)cc3)cc2)cc1 | 68 | > 60 | 337 | 

Now from value to molecule, other results behind:

IC50 [1] [µM] | half-life at 150 µM (in vitro) [h] | IC50 [3] [µM] | Structure (SMILES) | CC50 at 20 h [2] [µM]
24.3 |  |  | CC(C)[C@H]1c2ccc(F)cc2CC[C@@]1(CCN(C)CCCc1nc2ccccc2[nH]1)OC(=O)C1CC1 | 
48 | > 60 | 208 | Fc1ccc(Oc2ccc(NCc3ccc(OCCCN4CCCC4)cc3)cc2)cc1 | 
28 | > 60 | 146 | N#Cc1ccc(Oc2ccc(NCc3ccc(OCCCN4CCCC4)cc3)cc2)cc1 | 
33 | > 60 | 196 | Fc1ccc(Oc2ccccc2NCc2ccc(OCCCn3ccnc3)cc2)cc1 | 
10 | > 60 | 142 | CN(C)CCCOc1ccc(S(=O)(=O)Nc2cccc(Oc3ccccc3)c2)cc1 | 
19 | > 60 | 22 | N#Cc1ccc(Oc2ccc(NCc3ccc(OCCCN4CCCCC4)cc3)cc2)cc1 | 
20 | > 60 | 292 | Fc1ccc(Oc2cccc(NCc3ccc(OCCCN4CCCCC4)cc3)c2)cc1 | 
36 | > 60 | 201 | c1ccc(Oc2ccc(NCc3ccc(OCCCN4CCCC4)cc3)cc2)cc1 | 
39 | > 60 | 227 | CN(C)CCCOc1ccc(CNc2ccc(Oc3ccc(F)cc3)cc2)cc1 | 
